In PubChem BioAssay AID624491 (Broad Institute, 2012) one finds AC26 data, which are given here for 68 compounds.

SMILES strings stand for the structures.

The experiment concerns D54 ERlucT glycosylation luciferase reporter, luminescence, 24 h. The experiment is described as follows: N-linked glycosylation inhibitors, luciferase reporter, dose response, D54 ERlucT cells, luminescence, cherry-picks (AID 624491).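 Further: signal gain reflects blocked N-linked glycosylation of a luciferase reporter; actives raise luciferase signal so AC26 marks activators of the reporter.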 For orientation: Reporter assays use an easily measured gene product as a stand-in for the process of interest.

Consider `CCOC(=O)c1cc2[nH]c3ccccc3c2[n+](-c2ccc([N+](=O)[O-])cc2)c1N`, for which the AC26 was 1930 nM.
In the case of `COc1cc2c(cc1OC)C(c1cccs1)N(C(=O)c1cccnc1)CC2` (stereo not drawn), the AC26 was 806 nM.
Under `CSC1=NC(C(Cl)(Cl)Cl)N=C(c2ccccc2)N1` (stereo not drawn) stands 1470 nM; under `COc1ccc(-c2nc(NCCCN(C)C)c3ccccc3n2)cc1`, 2490 nM.
`Cc1cc(NC(=O)CSc2nc3c(C)cccc3cc2C#N)no1`: the AC26 is 3320 nM.
Regarding `C#CCCOC(=O)N1C2=NC(C(=O)OC)=C(C(=O)OC)[C@@H]3N(C)c4ccccc4[C@]23C[C@H]1C(=O)OC`, the AC26 was 479 nM.
Next, `Cc1cccc(/C=N\Nc2cn[nH]c(=O)c2Cl)c1`: 4560 nM; `Cc1ccnc(NC(=O)C(Cc2ccccc2)NC(=O)c2ccccc2)c1` (stereo not drawn): 564 nM; `Cc1nn(C(C)(C)C)c(OC(=O)c2ccc3c(c2)OCO3)c1Sc1ccccc1`: 3070 nM.
With `Cc1nnc2c3ccccc3c(-c3ccccc3)nn12`, the AC26 is 2870 nM.
Under `NNC(=O)c1oc2nc(-c3cccs3)cc(-c3ccco3)c2c1N` stands 2640 nM; under `CCOC(=O)[C@H]1[C@H]2COc3ccc(Br)cc3[C@@H]2N2C(=O)c3cc(OC)c(OC)cc3NC(=O)[C@@]12C`, 4040 nM; under `CC(C)(C)c1ccc(OCC(=O)Nc2ccncc2)c(Br)c1`, 4130 nM.
On to `COCCCNC(=O)c1ccc(-c2c(C)noc2C)c2ccoc12`, for which the AC26 was 4060 nM.
For `O=C(c1[nH]c(C(F)(F)F)nc1-c1ccccc1)N1CCN(c2cccc(C(F)(F)F)n2)CC1`, the AC26 is 9230 nM.
Consider `COC(=O)c1ccc(C)c(NC(=O)CN(c2cc(OC)ccc2OC)S(C)(=O)=O)c1`, for which the AC26 was 641 nM.
For the compound `NC(=O)CC(NC(=O)Cc1ccc(Br)cc1)c1ccc(NC2CC3CCC2C3)c([N+](=O)[O-])c1` (stereo not drawn), the AC26 is 32.6 nM.
Consider `O=C(CC1Nc2ccccc2NC1=O)Nc1ccccc1` (stereo not drawn), for which the AC26 is 4880 nM.
On to `COc1cc2c3c(cccc3c1)C(=O)N(CCN1CCCC1)C2=O`, for which the AC26 is 200 nM.
On to `Brc1ccc(C2=Nn3c(nnc3-c3n[nH]c4c3CCC4)SC2)cc1`, for which the AC26 was 407 nM.
For `CCN(CC)c1ccc(/C=N/n2nnnc2N)c(O)c1`, the AC26 is 3410 nM.
On to `CCOc1ccccc1C(=O)Nc1ccsc1C(=O)OC`, for which the AC26 was 1300 nM.
Next, `COc1ccc2nc3ccccc3nc2c1NC(=O)c1ccccc1Cl`: 11400 nM; `CC[C@H](C)C(=O)O[C@H]1C[C@@H](C)C=C2C=C[C@H](C)[C@H](CC[C@@H]3C[C@@H](O)CC(=O)O3)[C@H]21`: 301 nM.
Take `C/C(=N\NC(=O)c1c(Cl)c(C)nn1C)c1ccc(NC(=O)C2CCC2)cc1`: the AC26 was 3.55 nM.
For `CCOc1ccc(OCC)c(NC(=O)c2nnn(CC(=O)Nc3cc(C)cc(C)c3)c2N)c1`, the AC26 is 6440 nM.
Next, `CCCCOc1ccccc1C1CC(=O)NC2=C1C(=O)CCC2` (stereo not drawn): 1320 nM.
Next, `Cc1ccc(N2C(=O)NC(=O)/C(=C\C=C\c3ccco3)C2=O)cc1C`: 875 nM.
`O=C1Cc2c([nH]c3ccc(Br)cc23)-c2ccccc2N1`: the AC26 is 351 nM.
Next, `NC(=O)CC(NC(=O)Cc1ccc(Br)cc1)c1ccc(NC2CCN(Cc3ccccc3)CC2)c([N+](=O)[O-])c1` (stereo not drawn): 496 nM; `COc1ccc(CCn2c(Br)nc3c2c(=O)[nH]c(=O)n3C)cc1`: 1080 nM; `N#Cc1c(-c2ccc(F)cc2)c(-c2ccc(F)cc2)nn(CCO)c1=O`: 2080 nM.
Consider `COc1ccc(/C=N\NC(=O)c2sccc2C)cc1Cn1nc(C)cc1C`, for which the AC26 is 507 nM.
Take `CC(=O)c1cccc(-c2ccnc3c2CC(C(=O)Nc2ccc4c(c2)OCO4)O3)c1` (stereo not drawn): the AC26 is 2430 nM.
On to `CCOc1ccc(NC(=S)NC(=O)/C=C/c2ccc(C)cc2)c([N+](=O)[O-])c1`, for which the AC26 was 3930 nM.
Under `COCCCNC(=O)c1sc2ncn(CC(=O)Nc3ccc(C)c(Cl)c3)c(=O)c2c1C` stands 1380 nM; under `Cc1ccc(Nc2nnc(SCC(=O)Nc3ncc(S(=O)(=O)c4ccc([N+](=O)[O-])cc4)s3)s2)cc1`, 9030 nM.
Regarding `CCCn1nc(C(=O)N2CC(=O)Nc3ccccc32)c2ccccc2c1=O`, the AC26 was 4890 nM.
Next, `O=C(COC(=O)Cn1cnc2ccccc21)Nc1cccc2c1C(=O)c1ccccc1C2=O`: 2840 nM; `O=C(CCl)N1CCCC1c1ccc2c(c1)OCCO2` (stereo not drawn): 608 nM; `Cc1ccccc1OCCOC(=O)c1c(-c2ccccc2)noc1C`: 8510 nM.
Take `CC(C)COc1ccc(C(=O)OCC(=O)NCc2cccs2)cc1`: the AC26 was 1750 nM.
Under `Cc1nnc2c(NC(C)C)nc3ccccc3n12` stands 4090 nM; under `Cc1cc(-n2c(C)cc(C(=O)CCl)c2C)no1`, 2160 nM; under `CC(=O)Nc1ccc(NC(=O)c2ccc(-c3c(C)noc3C)c3ccoc23)cc1`, 1350 nM.
For the compound `Cc1c(-c2nc(N)nc(Nc3ccccc3)n2)oc2ccccc12`, the AC26 is 3890 nM.
Take `CC(C)(C)NCC(O)CON=C1c2ccccc2-c2ccccc21` (stereo not drawn): the AC26 was 5310 nM.
Consider `O=C(C[C@@H]1C[C@H]2c3cc(NC(=O)c4cccnc4)ccc3O[C@H]2[C@H](CO)O1)NCc1ccc(Oc2ccccc2)cc1`, for which the AC26 was 8780 nM.
Next, `Cc1ccc(N2CC(C(=O)Nc3ccc(S(=O)(=O)N4CCOCC4)cc3)CC2=O)cc1Cl` (stereo not drawn): 3860 nM.
`O=C1Cc2c([nH]c3ccc([N+](=O)[O-])cc23)-c2ccccc2N1`: the AC26 is 318 nM.
For `Cc1cc(NC(=O)NC(=O)c2ccccc2NC(=O)CN)ccc1Oc1ncc(Br)cn1`, the AC26 was 11000 nM.
`CC1CC(C)CN(C(=O)/C=C/c2ccc([N+](=O)[O-])s2)C1` (stereo not drawn): the AC26 is 8460 nM.
Next, `CC(C)(C)c1ccc(OCc2ccc(C(=O)N3CCOCC3)o2)cc1`: 2160 nM; `CC(NC(=O)c1cccc2ccccc12)c1ccc2c(c1)CCCC2` (stereo not drawn): 6480 nM; `CC1CN(C(=O)c2cc(-c3ccncc3)nc3ccccc23)CC(C)O1` (stereo not drawn): 2020 nM.
Next, `COc1ccccc1N1CCN(C(=O)c2oc3ccccc3c2C)CC1`: 8000 nM; `O=C(/C=C/c1ccc(-c2ccccc2[N+](=O)[O-])o1)c1ccc(Br)cc1`: 4780 nM; `COc1ccc(/C=N/NC(=O)c2nc(-c3ccccc3)cc(-c3ccccc3)n2)cc1O`: 685 nM.
Next, `COc1cc(/C=C2\SC(=S)N(CCC(=O)N3CCCCC3)C2=O)cc(OC)c1OC`: 6840 nM.
On to `CC(=O)Nc1ccc2cc3ccc(NC(C)=O)cc3nc2c1`, for which the AC26 is 5210 nM.
`Cn1nc(-c2ccc(N3CCOCC3)c(NS(=O)(=O)c3ccccc3)c2)c2ccccc2c1=O`: the AC26 is 6110 nM.
Take `Cc1ccc2nc3c(cc(C(N)=S)c(=N)n3CCCOC(C)C)c(=O)n2c1`: the AC26 was 1140 nM.
In the case of `Nc1c(N(Cc2ccccc2)C(=O)COc2ccc([N+](=O)[O-])cc2)c(=O)[nH]c(=O)n1Cc1ccccc1`, the AC26 was 389 nM.
Next, `Cc1ccc(Nc2nc(-c3sc(C)nc3C)cs2)cc1`: 481 nM; `Cc1noc(C)c1COc1cccc(C(=O)OC(C)C(=O)Nc2ccc3c(c2)OCO3)c1` (stereo not drawn): 40.4 nM.
Next, `O=C(/C=C/c1cn(-c2ccccc2)nc1-c1cccnc1)c1ccco1`: 628 nM; `CCOC(=O)C(CC)(CC)C(=O)/C=C/c1cccc(Br)c1`: 517 nM; `O=c1c2ccccc2sc2c(CO)ccc(NCCN3CCCCC3)c12`: 705 nM.
